Values joined by “and” are separate entries in the source; they are usually repeats but may differ in a detail not shown here. Equal values may be shown once. ± gives the expanded uncertainty stated by the source.
Experiment: xn = mol fraction of the nth substance listed
Details: Liquid, Other PVT measurement, x1 = 0.2607

SMILES: N [ammonia] + O
- mass density (508.07 K): 671.23 ± 2.7 kg/m3
- mass density (519.77 K): 649.65 ± 2.5 kg/m3
- mass density (545.62 K): 594.32 ± 2.1 kg/m3
- mass density (561.03 K): 552.58 ± 1.9 kg/m3
- mass density (565.36 K): 540.25 ± 1.8 kg/m3
- mass density (580.18 K): 476.26 ± 1.4 kg/m3
- mass density (584.95 K): 456.58 ± 1.3 kg/m3
- mass density (585.31 K): 120.03 ± 0.17 kg/m3
- mass density (594.14 K): 147.43 ± 0.22 kg/m3
- mass density (595.16 K): 376.89 ± 0.91 kg/m3
- mass density (597.36 K): 160.07 ± 0.24 kg/m3
- mass density (597.56 K): 342.19 ± 0.78 kg/m3
- mass density (598.33 K): 329 ± 0.73 kg/m3
- mass density (598.96 K): 320.33 ± 0.69 kg/m3
- mass density (599.42 K): 312.91 ± 0.67 kg/m3
- mass density (599.57 K): 311.19 ± 0.66 kg/m3
- mass density (599.67 K): 310.95 ± 0.66 kg/m3
- mass density (599.78 K): 308.35 ± 0.65 kg/m3
- mass density (599.89 K): 307.35 ± 0.65 kg/m3
- mass density (600.02 K): 305.44 ± 0.64 kg/m3
- mass density (600.17 K): 303.47 ± 0.64 kg/m3
- mass density (600.29 K): 301.94 ± 0.63 kg/m3
- mass density (600.48 K): 299.79 ± 0.62 kg/m3
- mass density (600.63 K): 297.6 ± 0.62 kg/m3
- mass density (600.81 K): 295.31 ± 0.61 kg/m3
- mass density (600.93 K): 292.97 ± 0.6 kg/m3
- mass density (601.05 K): 291.16 ± 0.59 kg/m3
- mass density (601.16 K): 188.05 ± 0.3 kg/m3
- mass density (601.34 K): 285.71 ± 0.58 kg/m3
- mass density (601.75 K): 195.99 ± 0.32 kg/m3
- mass density (602.05 K): 271.09 ± 0.53 kg/m3
- mass density (602.26 K): 206 ± 0.35 kg/m3
- mass density (602.45 K): 260.02 ± 0.5 kg/m3
- mass density (602.74 K): 214.83 ± 0.37 kg/m3
- mass density (602.85 K): 218.92 ± 0.38 kg/m3
- mass density (602.91 K): 243.98 ± 0.45 kg/m3
- mass density (602.96 K): 230.31 ± 0.41 kg/m3 and 224.53 ± 0.4 kg/m3
- mass density (602.97 K): 227.54 ± 0.41 kg/m3
